In paper PMC3310325 (Bioconjugate Chemistry, 2012):
Like-named read-outs stand apart in the source and are kept apart here.

Tests used:
[1] = previously determined; cited from earlier work
[2] = molecular target: T1, MMP-2 (Homo sapiens, UniProt P08253); details: cited from earlier work
T1 sequence (P08253 110-660): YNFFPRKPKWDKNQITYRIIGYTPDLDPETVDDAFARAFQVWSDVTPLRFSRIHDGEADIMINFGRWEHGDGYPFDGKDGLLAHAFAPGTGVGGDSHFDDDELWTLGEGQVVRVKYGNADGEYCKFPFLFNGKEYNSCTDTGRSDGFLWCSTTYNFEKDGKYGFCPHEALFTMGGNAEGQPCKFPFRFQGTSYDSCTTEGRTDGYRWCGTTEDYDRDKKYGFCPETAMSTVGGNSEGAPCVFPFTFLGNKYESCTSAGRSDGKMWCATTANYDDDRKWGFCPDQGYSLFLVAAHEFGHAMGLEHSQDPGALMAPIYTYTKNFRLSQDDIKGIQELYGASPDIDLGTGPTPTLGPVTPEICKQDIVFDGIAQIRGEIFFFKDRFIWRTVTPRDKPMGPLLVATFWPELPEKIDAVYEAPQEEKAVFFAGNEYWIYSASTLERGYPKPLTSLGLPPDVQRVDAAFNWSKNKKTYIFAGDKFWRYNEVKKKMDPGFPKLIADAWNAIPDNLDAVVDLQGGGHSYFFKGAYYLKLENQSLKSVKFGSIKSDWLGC

[3] = system: HT1080 human fibrosarcoma xenografts; assay: In vivo planar fluorescence imaging in HT1080 tumor-bearing mice; parameters: species or system human xenograft in male NCR nude mice
[4] = system: MMP-7; details: cited from earlier work
[5] = molecular target: T1, MMP-2; details: cited from earlier work; remark: listed apart in the source
[6] = system: MMP-9; details: single-stranded peptide without the GPO triplets; cited from earlier work
[7] = system: MMP-2; details: 450 kDa co-polymer conjugated to -Pro-Leu-Gly~Val-Arg-Gly-; cited from earlier work
[8] = system: MMP-1; details: -PLGVR- sequence; cited from earlier work
[9] = system: MMP-3; details: -PLGVR- sequence; cited from earlier work
[10] = system: MMP-7; details: -PLGVR- sequence; cited from earlier work
[11] = system: gelatinases; details: -PLGVR- sequence; cited from earlier work

In the case of “[(GPO)5GPK((7-methoxycoumarin-4-yl)acetyl)GPPG~VVGEK(2,4-dinitrophenyl)GEQ(GPO)5]3 [fluorogenic THP]”, the “midpoint transition temperature TM” value [1] is listed as 45 °C, the Km ([2]; MMP-2 hydrolysis) is listed as 4.4 µM and the kcat ([2]; MMP-2 hydrolysis) is listed as 0.062 s⁻¹. The kcat/KM ([2]; MMP-2 hydrolysis) was 14,000 s^−1M^−1.

For `CNC(=O)[C@H](Cc1c[nH]c2ccccc12)NC(=O)[C@@H](CC(=O)NO)CC(C)C` [Ilomastat], the “time course of tumor fluorescence intensity with inhibitor” value ([3]; mice treated with Ilomastat 1 mg/kg i.p., LS276-THP i.p.) was “a steady increase in fluorescence intensity occurred, indicating incomplete inhibition of tumor-associated MMP-2/MMP-9 activity”.

For GVPLSLTMGC, the level of quenching ([4]; heterologous donor and acceptor pair of near infrared dyes on the N- and C-terminus) is listed as 85% and the “fluorescence increase after digestion with MMP-7” value ([4]; heterologous donor/acceptor NIR dyes on N- and C-terminus) is listed as roughly 7 fold.

In the case of -Pro-Leu-Gly~Val-Arg-Gly-, the Km [5] is given as 290 µM, the kcat [5] is given as 4.1 s⁻¹ and the kcat/KM [5] is given as 14000 M⁻¹ s⁻¹.

In the case of GPPG~VVGEKGEQ, the “hydrolysis by MMP-2” value ([2]; single-stranded peptide without the GPO triplets) is given as “hydrolyzed extremely slowly” and the “hydrolysis by MMP-9” value [6] is given as “hydrolyzed extremely slowly”.

In the case of “-Pro-Leu-Gly~Val-Arg-Gly- [poly-lysine-PEG co-polymer]”, the “in vivo visualization of MMP-2 activity” value [7] is listed as “MMP-2 activity in mouse models was visualized”.

With -PLGVR- [MMPSense™ 680] the “tumor contrast versus contralateral thigh” value ([3]; 24 h post-injection, MMPSense 680 2 nmol i.v., n=3) was “about two-fold”, the “tumor-specific fluorescence enhancement relative to LS276-THP” value ([3]; MMPSense 680 2 nmol i.v. vs LS276-THP i.p.) was “slightly higher” and the “tumor-specific fluorescence contrast over time” value ([3]; MMPSense 680 2 nmol i.v., n=3, 24 h) was “increased over time for 24 h”. For the same molecule, the “proteolysis by MMP-1” value [8] was “subject to proteolysis”, the “proteolysis by MMP-3” value [9] was “subject to proteolysis” and the “proteolysis by MMP-7” value [10] was “subject to proteolysis”. The proteolysis by gelatinases [11] was “subject to proteolysis”.
